Experimental data reported in patent EP0240257A2, “Compounds and pharmaceutical preparations having calcium - regulatory activity” (University of Lancaster, priority 1986, dated 1987).
“Also recorded” adds a separate entry of the source.

Key:
flounder heart = experiment: Contractile force of isolated cannulated heart
Method: (§1) Smooth muscle preparations were obtained from male Wistar strain albino rats. The animals were killed by a blow to the head and smooth muscle strips (about 2 mm x 10 mm) were dissected from the bladder. The vasa deferentia were divided into two portions and longitudinally bisected. Tests on cardiac muscle were carried out using isolated cannulated flounder heart. All mammalian preparations were maintained in Krebs solution containing NaCl : 120.7 mM; NaH₂PO₄ : 1.3 mM; KCl : 5.9 mM; NaHCO₃ : 15.5 mM and CaCl₂ : 2.5mM; glucose : 11.5 mM. MgCl₂ : 1.2mM The Krebs solution was adjusted to pH 7.3 with HCl and was continuously aerated and maintained at 37°C.
The flounder heart was maintained at 10°C in flounder saline containing NaCl : 116.7 mM, CaCl₂ : 1.72 mM, Na₂SO₄ : 18.6 mM, TES : 2.5 mM and KCl : 2.71 mM, glucose : 5.0 mM MgSO₄ : 0.67 mM, at pH 7.65.
(§2) To record tension the muscle preparations were mounted vertically in jacketed organ baths which were continuously aerated and whose contents could be rapidly changed. The preparations were attached to a set of Grass Instruments ST 0.3C force displacement transducers held in adjustable rackwork, and the racks were adjusted to put slight tension on the preparations. After mounting in the perfusion baths the preparations were allowed to equilibrate for 1 hour, the bath saline being changed every 15 min. The force displacement transducer outputs were connected to a four-channel Grass model 79 polygraph. The stimulation electrode terminals were attached to Grass SIU 5 isolation units connected to two Grass S48 stimulators driven in tandem. Stimulation train parameters varied in different preparations but a common regime consisted of a 200 msec train of pulses at 50 Hz, each pulse being 2-5 msec at 40-50 V. Trains were automatically repeated usually at 100 or 50 sec intervals. The techniques have been described in detail by Huddart and Butler (1986) in Gen. Pharmac., 17, 695-703 (1986).
The contractile force in flounder heart was measured before and after addition of ABA to the perfusion solution.

[1] = system: rat urinary bladder detrusor muscle strips; experiment: High-K (60 mM K+) contracture response of K+-depolarized muscle
Method: as §1, §2
(A) Rat urinary bladder detrusor muscle strips were tested in a high-K saline prepared by substitution of sodium compounds in the Krebs' solution by equimolar amounts of potassium compounds to give a K+ concentration of 60 mM. At this level of depolarization it is believed that the fast calcium channels are voltage-inactivated. […]

[2] = system: rat vas deferens smooth muscle; experiment: Field stimulation contractions of isolated smooth muscle (organ bath tension recording)
Method: as §1, §2
(§3) The smooth muscle preparations were threaded through two silver/silver chloride ring electrodes (4 mm inside diameter), mounted 10 mm apart on a perspex rod. The bottom ligature was passed through a fine hole in a nylon screw at the base of the rod. By turning the screw the muscle strip could be drawn exactly through the electrode rings. The electrode assemblies were then placed in the jacketed organ baths as described above and the upper muscle ligatures attached to the transducer to measure tension. Both the vas deferens and the bladder smooth muscles responded to the field stimulation with consistent repeatable contractions. It is believed that these contractions are calcium-dependent via the operation of slow calcium channels. The effect of ABA on these contractions was tested by adding a concentrated solution thereof to the perfusion solution to give an overall ABA concentration of 10⁻⁶M. In the two vas deferens studies the slow calcium channel blocker nifedipine was then added in the same manner to produce a concentration of 10⁻⁷M. […]

[3] = system: rat urinary bladder detrusor muscle strips; experiment: as above
Method: as §1, §2, §3

[4] = system: rat vas deferens smooth muscle (partly depolarized); experiment: K+-induced (20 mM K) contracture tension, dose-response comparison; settings: for activity in enhancing K+-induced contracture tension: parallel trials of ABA and BAY K 8644, result in words
Method: as §1, with “All mammalian preparations were maintained in Krebs solution containing NaCl : 120.7 mM; NaH₂PO₄ : 1.3 mM; KCl : 5.9 mM; NaHCO₃ : 15.5 mM and CaCl₂ : 2.5mM; glucose : 11.5 mM.” left out
as §2, with “intervals.” for “intervals. The techniques have been described in detail by Huddart and Butler (1986) in Gen. Pharmac., 17, 695-703 (1986).”

[5] = Field stimulation response (more recent findings, tissue not stated); settings: no tissue or concentration printed
[6] = system: microsomal calcium efflux; experiment: Potassium-stimulated microsomal calcium efflux; assay type: biochemical
[7] = Rattus norvegicus, read-out: enhanced field stimulation responses

Compound | contractile force (flounder heart; ABA 10⁻⁶M in perfusion solution, 10°C) | cardiac arrhythmia (flounder heart; prolonged ABA exposure (15 minutes)) | tonic phase of the response ([1]; ABA 10⁻⁶ M in high-K saline, added just after the initial phasic response) | contracture tension ([1]; ABA 10⁻⁶M, K+-depolarized muscle, result in words) | activation at 1 µM ([1]; Rattus norvegicus, 0.25 h, ABA 10⁻⁶ M added 15 minutes before the high-K solution (K+ 60 mM), read-out: enhancement of contracture tension) [%] | activation at 1 µM [2, 7] [%] | activation at 1 µM [3, 7] [%] | activity in enhancing K+-induced contracture tension [4] | EC (100% enhancement) ([4]; rat vas deferens, partly depolarized, read-out: threshold for 100% enhancement of K contracture tension) [µM] | field stimulation response [5] | potassium-stimulated microsomal calcium efflux [6] | threshold / potency relative to ABA ([4]; rat vas deferens) | inhibition of the ABA action on contractile force (flounder heart; nifedipine after ABA 10⁻⁶M) | inhibition of the ABA augmentation of the field stimulation response (and of the response itself) ([2]; nifedipine 10⁻⁷M added after ABA 10⁻⁶M, vas deferens) | inhibition of the ABA augmentation of the field stimulation response (and of the response itself) ([3]; nifedipine after ABA 10⁻⁶M, bladder)
CC1=CC(=O)CC(C)(C)C1(O)/C=C/C(C)=C\C(=O)O (racemic) [ABA, (1ʹS,2Z,4E)-5-(1ʹ-hydroxy-2ʹ,6ʹ,6ʹ-trimethyl-4ʹ-oxocyclohex-2ʹ-enyl)-3-methyl-penta-2,4-dienoic acid] | augment | pronounced cardiac arrhythmia | enhanced; also recorded: considerable enhancement | considerably augmented | 50 | ~25 | ~25 | identical activity | ~0.005 | enhances | enhances | – | – | – | –
COC(=O)C1=C(C)NC(C)=C([N+](=O)[O-])C1c1ccccc1C(F)(F)F (stereo not shown) [BAY K 8644, methyl 1,4-dihydro-2,6-dimethyl-5-nitro-4-[2-(trifluoromethyl)-phenyl]-3-pyridinecarboxylate, reference compound] | – | – | – | – | – | – | – | identical activity | – | – | – | roughly one order of magnitude greater than ABA | – | – | –
COC(=O)C1=C(C)NC(C)=C(C(=O)OC)C1c1ccccc1[N+](=O)[O-] [nifedipine, reference compound] | – | – | – | – | – | – | – | – | – | – | – | – | inhibited | inhibited | inhibited
